The record followed here is ChEMBL document CHEMBL2040771, “Discovery of a potent inhibitor of anaplastic lymphoma kinase with in vivo antitumor activity” (ACS Med Chem Lett, 2010).

The target in one data set is Insulin receptor (Homo sapiens, UniProt P06213). Nature of the data set: Inhibition of insulin receptor.
The nature of data set [1]: Oral bioavailability in rat. The class given is ADME, organism-based. To be noted: in vivo.
In data set [2] the target is ALK tyrosine kinase receptor (Homo sapiens, UniProt Q9UM73). Nature of the data set: Inhibition of ALK.
Sequence of ALK tyrosine kinase receptor (Q9UM73 whole entry): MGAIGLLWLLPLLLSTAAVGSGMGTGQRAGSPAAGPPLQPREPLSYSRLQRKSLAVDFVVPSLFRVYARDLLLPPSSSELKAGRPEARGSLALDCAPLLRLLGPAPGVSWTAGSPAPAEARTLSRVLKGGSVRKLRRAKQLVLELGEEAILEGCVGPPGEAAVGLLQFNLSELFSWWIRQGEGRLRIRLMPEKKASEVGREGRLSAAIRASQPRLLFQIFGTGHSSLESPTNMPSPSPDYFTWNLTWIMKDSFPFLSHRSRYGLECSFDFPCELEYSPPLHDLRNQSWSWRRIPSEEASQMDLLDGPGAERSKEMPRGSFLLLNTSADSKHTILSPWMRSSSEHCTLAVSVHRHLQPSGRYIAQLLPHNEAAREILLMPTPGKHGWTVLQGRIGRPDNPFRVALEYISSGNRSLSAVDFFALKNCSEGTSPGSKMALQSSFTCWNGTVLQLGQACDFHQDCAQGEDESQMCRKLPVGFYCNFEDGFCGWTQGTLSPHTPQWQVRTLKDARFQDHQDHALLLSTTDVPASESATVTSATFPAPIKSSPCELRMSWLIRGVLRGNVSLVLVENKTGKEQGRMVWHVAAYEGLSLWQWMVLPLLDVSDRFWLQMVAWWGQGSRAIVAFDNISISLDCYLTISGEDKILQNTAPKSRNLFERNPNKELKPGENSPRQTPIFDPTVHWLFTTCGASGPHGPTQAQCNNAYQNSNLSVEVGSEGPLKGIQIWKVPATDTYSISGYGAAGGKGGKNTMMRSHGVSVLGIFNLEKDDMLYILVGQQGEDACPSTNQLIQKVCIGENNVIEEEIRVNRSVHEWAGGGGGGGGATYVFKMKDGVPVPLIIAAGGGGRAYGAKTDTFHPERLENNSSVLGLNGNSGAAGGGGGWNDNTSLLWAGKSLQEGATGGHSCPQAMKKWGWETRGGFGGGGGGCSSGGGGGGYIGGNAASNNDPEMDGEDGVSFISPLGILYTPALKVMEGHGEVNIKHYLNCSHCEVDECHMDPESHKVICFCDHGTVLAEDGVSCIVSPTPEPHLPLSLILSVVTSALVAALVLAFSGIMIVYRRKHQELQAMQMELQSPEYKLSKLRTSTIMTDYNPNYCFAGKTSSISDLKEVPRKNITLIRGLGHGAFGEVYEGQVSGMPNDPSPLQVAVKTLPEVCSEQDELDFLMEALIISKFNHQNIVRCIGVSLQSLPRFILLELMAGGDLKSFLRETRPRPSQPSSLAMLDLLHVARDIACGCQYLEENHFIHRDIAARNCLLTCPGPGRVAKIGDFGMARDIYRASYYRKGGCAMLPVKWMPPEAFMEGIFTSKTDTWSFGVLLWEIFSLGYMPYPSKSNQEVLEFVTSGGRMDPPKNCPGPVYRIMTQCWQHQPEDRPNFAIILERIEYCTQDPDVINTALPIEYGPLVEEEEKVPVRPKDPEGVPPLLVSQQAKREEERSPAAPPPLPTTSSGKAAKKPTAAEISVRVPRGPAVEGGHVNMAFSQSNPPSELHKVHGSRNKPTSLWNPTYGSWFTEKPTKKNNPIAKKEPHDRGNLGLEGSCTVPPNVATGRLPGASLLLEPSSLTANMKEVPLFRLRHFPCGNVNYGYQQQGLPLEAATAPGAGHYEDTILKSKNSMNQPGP

Sequence of Insulin receptor (P06213 28-758 limits assumed): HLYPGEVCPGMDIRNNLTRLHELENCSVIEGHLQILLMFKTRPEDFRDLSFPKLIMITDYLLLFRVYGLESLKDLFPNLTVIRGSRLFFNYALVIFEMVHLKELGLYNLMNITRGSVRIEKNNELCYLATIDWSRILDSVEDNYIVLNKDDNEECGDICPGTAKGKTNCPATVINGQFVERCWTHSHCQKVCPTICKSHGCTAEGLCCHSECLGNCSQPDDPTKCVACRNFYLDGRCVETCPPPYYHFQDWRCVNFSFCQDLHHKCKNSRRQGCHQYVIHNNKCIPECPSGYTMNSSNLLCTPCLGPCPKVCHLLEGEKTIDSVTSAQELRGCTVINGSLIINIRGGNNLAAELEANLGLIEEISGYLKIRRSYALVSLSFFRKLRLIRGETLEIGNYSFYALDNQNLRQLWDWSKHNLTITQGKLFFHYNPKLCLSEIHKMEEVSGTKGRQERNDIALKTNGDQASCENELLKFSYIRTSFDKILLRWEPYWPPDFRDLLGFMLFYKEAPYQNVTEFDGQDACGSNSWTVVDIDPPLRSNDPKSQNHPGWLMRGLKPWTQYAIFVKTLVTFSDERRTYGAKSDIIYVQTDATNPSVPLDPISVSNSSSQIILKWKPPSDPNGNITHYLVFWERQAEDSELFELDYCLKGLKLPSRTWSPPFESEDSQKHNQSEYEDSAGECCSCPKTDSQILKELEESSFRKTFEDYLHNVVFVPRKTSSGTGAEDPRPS
Sequence of Insulin receptor (P06213 763-1382 limits assumed): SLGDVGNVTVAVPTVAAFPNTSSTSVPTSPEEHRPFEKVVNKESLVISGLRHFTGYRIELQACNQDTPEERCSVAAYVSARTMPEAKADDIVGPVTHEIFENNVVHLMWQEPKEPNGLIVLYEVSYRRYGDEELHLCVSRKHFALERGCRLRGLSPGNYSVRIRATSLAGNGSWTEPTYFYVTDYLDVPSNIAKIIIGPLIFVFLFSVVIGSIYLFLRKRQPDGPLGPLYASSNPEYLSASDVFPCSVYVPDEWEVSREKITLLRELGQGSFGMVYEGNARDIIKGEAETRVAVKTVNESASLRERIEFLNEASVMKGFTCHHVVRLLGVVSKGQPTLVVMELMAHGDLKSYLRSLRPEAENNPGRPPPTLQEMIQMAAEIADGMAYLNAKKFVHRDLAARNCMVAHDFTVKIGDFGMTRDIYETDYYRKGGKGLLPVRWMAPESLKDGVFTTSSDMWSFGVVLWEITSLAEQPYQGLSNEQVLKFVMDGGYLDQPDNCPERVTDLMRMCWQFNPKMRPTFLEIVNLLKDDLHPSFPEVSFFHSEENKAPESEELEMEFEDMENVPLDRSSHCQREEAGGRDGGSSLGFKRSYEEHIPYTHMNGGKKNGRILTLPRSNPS

One may read the IC50 as the concentration that gives 50% inhibition. `CCN1C(=O)CCCc2c1ccc(Nc1ncc(Cl)c(Nc3ccccc3S(=O)(=O)N(C)C)n1)c2OC` displayed a half-maximal inhibitory concentration (IC50) on Insulin receptor of 71 nM.

With `CN1C(=O)CCCc2cc(Nc3ncc(Cl)c(N[C@@H]4CCCC[C@H]4C(N)=O)n3)ccc21` (racemic), the half-maximal inhibitory concentration (IC50) at Insulin receptor was 2010 nM.

At Insulin receptor, `CCN1C(=O)CCCc2c1ccc(Nc1ncc(Cl)c(Nc3ccccc3C(=O)NC)n1)c2OC` displayed an IC50 of 215 nM.

At Insulin receptor, `CCN1C(=O)CCCc2cc(Nc3ncc(Cl)c(Nc4ccccc4S(=O)(=O)C(C)C)n3)c(OC)cc21` showed an IC50 of 12 nM.

As usually defined, the bioavailability is dose-corrected exposure relative to a reference, in per cent. The low end stands for poor availability, the high end for good availability. `CNC(=O)c1ccccc1Nc1nc(Nc2ccc3c(c2)CCCC(=O)N3C)ncc1Cl` registered a bioavailability in data set [1] of 9%.

In the case of `CNS(=O)(=O)c1ccccc1Nc1nc(Nc2ccc3c(c2)CCCC(=O)N3C)ncc1Cl`, the IC50 against Insulin receptor worked out at 10 nM. Moreover, the bioavailability in data set [1] was determined as 11%.

`CCN1C(=O)CCCc2c1ccc(Nc1ncc(Cl)c(Nc3ccccc3S(=O)(=O)C(C)C)n1)c2OC` registered an IC50 on Insulin receptor of 32 nM.

On Insulin receptor, `CN1C(=O)CCCc2cc(Nc3ncc(Cl)c(N[C@H]4[C@@H](C(N)=O)[C@@H]5C=C[C@H]4C5)n3)ccc21` (racemic) gave an IC50 of 91 nM. The bioavailability in data set [1] was 13%.

The compound `CCN1C(=O)CCCc2cc(Nc3ncc(Cl)c(Nc4ccccc4S(=O)(=O)N(C)C)n3)c(OC)cc21` yielded a concentration for half-maximal inhibition (IC50) on Insulin receptor of 37 nM. That is a double-digit nanomolar value.

On to `CCN1C(=O)CCCc2cc(Nc3ncc(Cl)c(N[C@H]4[C@@H](C(N)=O)[C@@H]5C=C[C@H]4C5)n3)c(OC)cc21`, for which the IC50 at Insulin receptor was 89 nM.

Regarding `CNC(=O)c1cccc(Nc2nc(Nc3ccc4c(c3)CCCC(=O)N4C)ncc2Cl)c1`, the IC50 in data set [2] came out at 568 nM; at Insulin receptor, 247 nM.

At Insulin receptor, `CCN1C(=O)CCCc2cc(Nc3ncc(Cl)c(Nc4ccccc4C(=O)NC)n3)c(OC)cc21` registered an IC50 of 34 nM.

In turn, `CN1C(=O)CCCc2cc(Nc3ncc(Cl)c(N[C@@H]4CCCC[C@@H]4C(N)=O)n3)ccc21` (racemic) returned an IC50 on Insulin receptor of 319 nM.
